Experimental data reported in patent US20100233701A1, “Use of non-clonal chromosomal aberrations for cancer research and clinical diagnosis” (priority 2008, published 2010).
Peptide text beside a SMILES is read from it. * marks the point of attachment. Cbz = O=C(OCc1ccccc1)*; CH2F = FC*

Assays:
ER stress pathways = experiment: ER stress agents, western blot and SKY analysis of NCCAs; format: cell-based; details: for NCCA levels: SKY analysis following a short period of culture; for ER stress pathway activation: western blot analysis following the drug treatment
From the text: The inventors herein then determined to use a more defined stress condition to validate the link between the stress and the genome evolution. Since the endoplasmic reticulum (ER) has an important role in sensing cellular stress, and the ER stress is well studied, the inventors hypothesize that the defined ER stress will also generate elevated NCCAs leading to the formation of new karyotypes. Specific agents were used to target specific pathways of ER stress including tharpsigargin, tunicamycin and DTT. Tunicamycin interferes with glycalation and results in induction of ER stress. Tharpsigargin inhibits the endoplasmic reticulum calcium ATPase, and results in the release of calcium from the ER, and DTT induces reductive stress through its activity in breaking disulfide bonds which leads to induction of the unfolded protein response. […] As illustrated, the specific ER stress pathways were indeed active in three treatments.

MDA-MB-231 = experiment: SKY analysis of NCCAs after proteasome inhibitor treatment; format: cell-based; details: immediately following treatment
From the text: (§1) Following probe denaturation, hybridization and SKY detection, randomly selected mitotic figures were photographed and analyzed by SKY imaging software. Fifty to hundred SKY images were captured for each cell population to identify commonly shared karyotype features and to reveal the karyotypic diversity of these various cell populations. NCCAs were scored by identifying chromosomal numbers, chromosome translocations/large deletions or other types of abnormality detected within a given mitotic cell. There are two steps needed to score frequencies of NCCAs and CCAs. First, a 4% cutoff line is used to identify any specific recurrent karyotypes or CCAs. The frequency of a CCA is determined by calculating the number of cells displaying the same CCA divided by the total cells examined (50-100). Non-clonal karyotypes (NCCAs) are classified as having a frequency lower than 4%. The total frequencies of NCCAs of a given cell population is then calculated by using all cells displaying NCCAs divided by the total cells examined.
(§2) 5. A comparison of specific and non-specific drugs that target the same pathway: In order to compare directly the effects of challenging the same molecular pathway with specific or nonspecific drug treatments with regard to genome system stability and evolution, the protein degradation pathway was chosen. Two proteasome inhibitors, Bortezomib (also named Velcade or PS-341) and MG132 were used. […] Compared to 132, Bortezomib is more specific. Two breast cancer cell lines, MDA-MB-231 and BT549, were used for this comparison. […] After a few weeks culture, there seemed to be no drastic changes in terms of the formation of new karyotypes.

BT549 = experiment: as above; format: cell-based; details: following treatment
From the text: as §1, §2

caspase-3 = target: T1, caspase-3 (Homo sapiens, UniProt P42574); experiment: Caspase-3 colorimetric activity assay; format: cell-based; details: 20 μmol/L, cells treated with colcemid and doxorubicin
T1 construct: endogenous in cells; host or cells: HCT116
T1 sequence (P42574 29-175 limits assumed): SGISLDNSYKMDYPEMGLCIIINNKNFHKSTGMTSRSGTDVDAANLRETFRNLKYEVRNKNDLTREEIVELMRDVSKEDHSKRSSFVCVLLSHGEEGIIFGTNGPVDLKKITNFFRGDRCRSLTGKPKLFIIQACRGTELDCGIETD
T1 sequence (P42574 176-277 limits assumed): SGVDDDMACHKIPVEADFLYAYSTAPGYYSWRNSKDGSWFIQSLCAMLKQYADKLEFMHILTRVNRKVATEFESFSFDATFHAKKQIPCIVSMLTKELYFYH
Experimental: Caspase-3 activity. Caspase-3 activity was measured using the caspase-3 colorimetric assay kit from R&D Systems as herein described. HCT116 cells were treated for 8 h with colcemid with and without z-vad-fmk. Mitotic cells were then shaken off and treated with doxorubicin for an additional 6 h and 12 h.

HCT116 cells = experiment: Caspase inhibition during induced chromosome fragmentation; format: cell-based; details: pretreatment with z-vad-fmk, then colcemid and doxorubicin, 6 and 12 h
Experimental: (§3) Cytogenetic examination. Cells were harvested and cytogenetic slides were prepared using standard protocols. Slides were stained by Giemsa for scoring nuclear structures or stored at −20° C. for further characterization including spectral karyotyping (SKY) and antibody staining. The fragmentation index was determined by dividing the number of cells displaying chromosome fragmentation by the total number of mitotic cells, including cells undergoing chromosome fragmentation.
Caspase inhibition. Caspase activity was inhibited by treatment of HCT116 cells for 12 h with […] z-vad-fmk followed induction of chromosome fragmentation (by concurrent treatment with colcemid and 1 μg/mL doxorubicin) for 6 or 12 h in the presence of or after removal of z-vad-fmk. Following treatment, cytogenetic slides were made and scored.

HCT116 14-3-3−/− cells = experiment: Mitotic catastrophe model, doxorubicin, scored for chromosome fragmentation; format: cell-based; details: low dose of doxorubicin
Experimental: (§4) Induction of mitotic catastrophe. Mitotic catastrophe was induced as herein described. HCT116 14-3-3−/− cells were treated for up to 72 h with 2 μg/mL doxorubicin and HCT116 p53−/−. The cells were treated with 1 μg/mL aphidicolin for up to 96 h and were each harvested every 24 h. Cytogenetic preparations and cytospin preparations were made allowing for chromosomal and morphologic analysis.
(§5) The present mitotic cell death process differs from previously described mitotic catastrophe. Mitotic catastrophe has been loosely defined as cell death that results from aberrant mitoses. […] Not only do the definitions of mitotic catastrophe differ but there is also a lack of morphologic characterization of chromosomes from cells undergoing mitotic catastrophe. […] Cells were induced to undergo mitotic catastrophe according to published reports. Half of the cells were prepared using reported protocols and half were prepared according to standard cytogenetic procedure to score chromosome fragmentation frequency.

mitotic cells = experiment: Induction of chromosome fragmentation (fragmentation index, cytogenetic scoring); format: cell-based
Experimental: as §3, with “Induction of chromosome fragmentation. After 3 to 8 h treatment of colcemid, mitotic cells were gently shaken off and resuspended in culture medium containing colcemid. Cells were then treated with doxorubicin or methotrexate at 1 μg/mL for various times. Cytogenetic” for “Cytogenetic”

cell population = experiment: High stress drug treatment, NCCAs and karyotypes; format: cell-based; details: immediately after treatment of a high dosage
From the text: First, the same cell line was used with both “high” and “low” levels of stress applied respectively. High stress was applied through chemo-therapy drug treatments (doxorubicin) (Dox) while low stress was generated by altering culture conditions. […] This was illustrated by the drastically altered karyotypes in every cell examined, which persisted until certain karyotypes became dominant (completing the transition from high levels of NCCAs to specific CCAs) following at least 6 weeks of culture in a drug free medium.

[1] = tested on: OV433 and TOV112D cell lines; experiment: Selection of cisplatin resistant clones, karyotypes by SKY; format: cell-based; details: 6-9 months of selection by gradually increased concentrations
Experimental: 3. Less specific targeted drugs can cause karyotypic changes: A well accepted mechanism of drug resistance acquisition is a specific gene mutation linked to a defined molecular pathway such as the cell death pathway, multiple drug resistance pathway or chromosomal machinery that is responsible for genome integrity. In order to test such a mechanism in the context of genome system evolution, well characterized ovarian cancer cell lines were treated with cisplatin, which is a drug commonly used to treat various types of cancers. The mechanism of this drug is thought to be binding and cross-linking of DNA by platinum complexes, which ultimately triggers apoptosis. The mechanisms of cisplatin resistance have been proposed to include changes in cellular uptake, increased detoxification of the drug, inhibition of apoptosis and increased DNA repair.
The karyotypes were examined by SKY and some key pathways possibly related to the acquisition of drug resistance in the clones were analyzed by western blots.

[2] = tested on: cisplatin resistance cell line; experiment: SKY analysis of NCCAs after Bcl-2 inhibitor treatment; format: cell-based
From the text: as §1
4. […] To examine this issue, TW-37, a small-molecule inhibitor drug that specifically binds to and inhibits Bcl-2 was used in a cisplatin resistance cell line that was previously tested. Under treatment conditions resulting in 50% cell death, surviving cells of two cell lines were followed with SKY analysis. […]

HCT116 p53−/− cells [3] = experiment: Mitotic catastrophe model, aphidicolin, scored for chromosome fragmentation; format: cell-based; details: for mitotic fraction: conventional cytogenetic analysis
Experimental: as §4, §5

HCT116 p53−/− cells [4] = details: 72 h, reported; cited from earlier work

With tharpsigargin the NCCA levels (ER stress pathways) was “elevated NCCAs were observed” and the “ER stress pathway activation” value (ER stress pathways) was “indeed active”.
For `CC(C)C[C@@H](C=O)NC(=O)[C@H](CC(C)C)NC(=O)[C@H](CC(C)C)NC(=O)OCc1ccccc1` [MG132] (Cbz-Leu-Leu-Leu-aldehyde), the NCCAs (MDA-MB-231) was “showed an increase in NCCAs” and the NCCA frequencies (BT549) was “failed to generate increased NCCA frequencies”.
For `COC(=O)C[C@H](NC(=O)[C@H](C)NC(=O)[C@@H](NC(=O)OCc1ccccc1)C(C)C)C(=O)CF` [z-vad-fmk] (Cbz-Val-Ala-Asp(OMe)-CH2F), the caspase-3 reactivity (caspase-3) was “largely inhibited” and the “chromosome fragmentation frequency upon caspase inhibition” value (HCT116 cells) was “not significantly altered”.
For `COc1cccc2c1C(=O)c1c(O)c3c(c(O)c1C2=O)C[C@@](O)(C(=O)CO)C[C@@H]3O[C@H]1C[C@H](N)[C@H](O)[C@H](C)O1` [doxorubicin], the “phosphorylated H3 staining” value (HCT116 14-3-3−/− cells) was “only a very small fraction of cells show any positive signal”, the chromosome fragmentation (HCT116 14-3-3−/− cells; conventional cytogenetic protocols) was “chromosome fragmentation was not evident” and the “induction of chromosome fragmentation” value (mitotic cells) was “can induce chromosome fragmentation”. For the same molecule, the “chromosome fragmentation in interphase cells” value (mitotic cells; interphase cells, doxorubicin and colcemid preceded by a double thymidine block, up to 24 h) was “no chromosome fragmentation was observed”, the “mitotic cells showing a degree of chromosome fragmentation” value (mitotic cells; mitotic shake-off cells arrested with colcemid, concurrent doxorubicin, within 12 h) was ~100% and the “level of NCCAs” value (cell population) was “a high level of NCCAs was quickly detected”.
In the case of `N.N.[Cl][Pt][Cl]` [cisplatin], the “karyotypes of drug resistant clones” value [1] is reported as “drastically different karyotypes”.
For tunicamycin, the NCCA levels (ER stress pathways) was “elevated NCCAs were observed” and the “ER stress pathway activation” value (ER stress pathways) was “indeed active”.
In the case of `CC(C)C[C@H](NC(=O)[C@H](Cc1ccccc1)NC(=O)c1cnccn1)B(O)O` [Bortezomib], the NCCAs (MDA-MB-231) is reported as “showed an increase in NCCAs” and the NCCA frequencies (BT549) is reported as “failed to generate increased NCCA frequencies”.
In the case of `CN(Cc1cnc2nc(N)nc(N)c2n1)c1ccc(C(=O)N[C@@H](CCC(=O)O)C(=O)O)cc1` [methotrexate], the “induction of chromosome fragmentation” value (mitotic cells) is reported as “can induce chromosome fragmentation”.
With `CC(C)c1ccccc1Cc1cc(C(=O)Nc2ccc(S(=O)(=O)c3ccccc3C(C)(C)C)cc2)c(O)c(O)c1O` [TW-37] the “formation of new karyotypes” value ([2]; after a few weeks of culture) was “new stable karyotypes were detected” and the “frequencies of NCCAs” value ([2]; treatment conditions resulting in 50% cell death, surviving cells of two cell lines) was “increased”.
For `C[C@@]1(CO)[C@H](O)CC[C@@]2(C)[C@H]1CC[C@H]1C[C@@H]3C[C@@]12CC[C@]3(O)CO` [aphidicolin], the mitotic fraction (HCT116 p53−/− cells [3]; 72 h) was 3.2%, the chromosome breaks (HCT116 p53−/− cells [3]; 96 h) was “evident in the majority of chromosome spreads” and the mitotic fraction (HCT116 p53−/− cells [3]; 96 h) was 5.4%. The cells died (HCT116 p53−/− cells [4]) was 40%.
With `O[C@@H](CS)[C@@H](O)CS` [DTT] the NCCA levels (ER stress pathways) was “elevated NCCAs were observed” and the “ER stress pathway activation” value (ER stress pathways) was “indeed active”.
